Reference: patent US10004701B2, “Methods and compositions for treating infection” (UNIVERSITY OF ROCHESTER, priority 2012, dated 2018)
≈ marks a conversion by molar mass, not a printed value. Read-outs that look alike come from different tables or passages of the source. Each block holds one compound with its values, some of them ahead of it.

Assays:
[1] = test system: S. aureus strain UAMS-1 static biofilms; assay: AK assay of established biofilms (with plating); assay type: cell-based, Staphylococcus aureus; details: 10×MIC; for decrease in biofilm-associated bacteria / biofilm cell viability (plating): S. aureus UAMS-1 48-h biofilm, vs untreated
[2] = test system: S. aureus SCV strain UAMS-1112; assay: Small-colony variant AK assay (with plating); assay type: cell-based, Staphylococcus aureus
Protocol: Thirty-six-hour cultures of S. aureus strain UAMS-1112 were used to inoculate (1:100 dilution) 100 ml of fresh MH medium and grown at 37° C. on a rotary shaker at 225 rpm to an optical density (600 nm) of 0.1 to 0.2, corresponding to ˜1×10^6 CFU ml^−1. Cells were pelleted by centrifugation and resuspended in 2 ml of fresh MH medium. Ninety-eight microliters of MH medium containing 5×10^6 bacteria and 2 μl of the indicated antibiotic were added to individual wells of a white-walled, 96-well microtiter plate. Well components were mixed by pipetting and incubated at 37° C. for 3 h. The plate was equilibrated to room temperature for 30 min. Next, 100 μl of ToxiLight AK reagent was added to each well, followed by incubation at room temperature for 30 min, and luminescence was measured using a SpectraMax M5 plate reader.
SCV are slow-growing populations of bacterial species that have been hypothesized to cause latent or recurrent infections and are tolerant of standard antibiotic treatment regimens. Based on the aberrant SCV growth characteristics, typical growth-based HTS assays would be difficult to employ. Accordingly, the ability of the AK assay to identify agents that kill S. aureus SCV strain UAMS-1112 was tested. […].

[3] = test system: Enterococcus faecium 824-05; assay: MIC testing; assay type: cell-based
[4] = test system: Enterobacter cloacae PMD1001; assay: MIC testing; assay type: cell-based
Escherichia coli 8295 [5] = assay: MIC testing; assay type: cell-based
[6] = test system: Enterococcus faecium 824-05; assay: AK assay 96-well format; assay type: cell-based
[7] = test system: Acinetobacter baumannii 98-37-09; assay: MIC testing; assay type: cell-based
Staphylococcus aureus = assay: MIC testing; assay type: cell-based
[8] = test system: Klebsiella pneumoniae cKP1; assay: MIC testing; assay type: cell-based
[9] = test system: Pseudomonas aeruginosa PA01; assay: MIC testing; assay type: cell-based
[10] = test system: Pseudomonas aeruginosa PA01; assay: AK assay 96-well format; assay type: cell-based
[11] = test system: Enterobacter cloacae PMD1001; assay: AK assay 96-well format; assay type: cell-based
[12] = test system: Klebsiella pneumoniae cKP1; assay: AK assay 96-well format; assay type: cell-based
Escherichia coli 8295 [13] = assay: AK assay 96-well format; assay type: cell-based
E. faecium = assay: AK assay 384-well format, Prestwick library screening; assay type: cell-based, Enterococcus faecium; details: E. faecium; 50 μM, cutoff 3-fold increase in AK
E. faecium strain 824-05 = assay: Galleria mellonella model of E. faecium infection; assay type: in vivo; details: larval survival 48 h postinoculation
[14] = test system: Acinetobacter baumannii 98-37-09; assay: AK assay 96-well format; assay type: cell-based; details: for Fold increase in AK signal: Acinetobacter baumannii 98-37-09
[15] = test system: A. baumannii strain 98-37-09 static biofilms; assay: AK assay of established biofilms (with plating); assay type: cell-based, Acinetobacter baumannii; details: A. baumannii 98-37-09 biofilm; 10×MIC overnight; vs untreated
Protocol: Biofilms were grown as previously described (Beenken et al. Infect. Immun. 71: 4206-4211 (2003); Musken et al. Nat. Protoc. 5: […] (2010); Tomaras et al. Microbiology 149: 3473-3483 (2003)). Briefly, P. aeruginosa and A. baumannii were cultured overnight in Luria-Bertani medium and then used to seed 96-well, flat-bottom plates. Plates were incubated at 37° C. in a humidified incubator for 48 h to allow the formation of static biofilms. Nonadherent cells were removed by aspiration and washing with sterile phosphate-buffered saline (PBS). […] Following treatment, 100 μl of each biofilm supernatant was transferred to 96-well, white-walled plates, 100 μl of ToxiLight AK reagent was added to each well, mixtures were incubated for 30 min at room temperature, and luminescence was measured using a SpectraMax M5 plate reader. Biofilm-associated bacteria were enumerated by resuspending each biofilm in fresh PBS and plating. […] Established S. aureus biofilms were washed once with PBS and then treated with a 100 μl of ToxiLight lysis buffer for 3 h, after which the amount of AK released into supernatants was measured, as described above.
Following overnight antibiotic treatment, biofilm-associated bacteria were enumerated by plating, and the corresponding supernatants were analyzed by the AK assay.

[16] = S. aureus UAMS-1112, 1× or 10×MIC for 3 h
[17] = 82405, Enterococcus faecium 824-05, read-out: MIC
[18] = 983709, Acinetobacter baumannii 98-37-09, read-out: MIC
[19] = Staphylococcus aureus USA300-0114, read-out: MIC
[20] = Klebsiella pneumoniae cKP1, read-out: MIC

Compound: O=C(O)c1cn(C2CC2)c2cc(N3CCNCC3)c(F)cc2c1=O [Ciprofloxacin, ciprofloxacin]
decrease in biofilm-associated bacteria / biofilm cell viability (plating) [1]: 0.7 log
decrease in SCV viability (plating) [2, 16]: no effect
increase in AK signal compared to mock-treated cells [2, 16]: no change

Compound: CC(=O)NC[C@H]1CN(c2ccc(N3CCOCC3)c(F)c2)C(=O)O1 [Linezolid, linezolid]
MIC [3, 17]: 16 µg/mL (≈ 47.4 µM)
MIC [4]: > 256 µg/mL
MIC (Escherichia coli 8295 [5]): > 256 µg/mL
Fold increase in AK signal ([6]; treatment 0.5×MIC): 2 fold
Fold increase in AK signal ([6]; treatment 1.0×MIC): 2 fold
MIC [7, 18]: 256 µg/mL (≈ 759 µM)
MIC (Staphylococcus aureus; Staphylococcus aureus): 2 µg/mL (≈ 5.93 µM)
MIC (Staphylococcus aureus; [19]): 2 µg/mL (≈ 5.93 µM)
MIC ([8]; Klebsiella pneumoniae, CKP1): > 256 µg/mL
MIC [9]: > 256 µg/mL

Compound: C[C@@H](O)[C@H]1C(=O)N2C(C(=O)O)=C(S[C@@H]3CN[C@H](C(=O)N(C)C)C3)[C@H](C)[C@H]12 [Meropenem, meropenem]
MIC ([3]; Enterococcus faecium, 82405): > 256 µg/mL
MIC ([4]; read-out: MIC): 2 µg/mL (≈ 5.22 µM)
Fold increase in AK signal ([10]; treatment 0.5×MIC): 45 fold
Fold increase in AK signal ([10]; treatment 1.0×MIC): 39 fold
Fold increase in AK signal ([11]; treatment 0.5×MIC): 99 fold
Fold increase in AK signal ([11]; treatment 1.0×MIC): 296 fold
MIC (Escherichia coli 8295 [5]; read-out: MIC): 2 µg/mL (≈ 5.22 µM)
MIC [7, 18]: 2 µg/mL (≈ 5.22 µM)
decrease in SCV viability (plating) [2, 16]: 0.5 log
increase in AK signal compared to mock-treated cells [2, 16]: 2.5 fold
Fold increase in AK signal ([12]; treatment 1.0×MIC): 220 fold
Fold increase in AK signal (Escherichia coli 8295 [13]; treatment 0.5×MIC): 60 fold
Fold increase in AK signal (Escherichia coli 8295 [13]; treatment 1.0×MIC): 85 fold
MIC (Staphylococcus aureus; Staphylococcus aureus): 2 µg/mL (≈ 5.22 µM)
MIC (Staphylococcus aureus; [19]): 4 µg/mL (≈ 10.4 µM)
MIC [8, 20]: 2 µg/mL (≈ 5.22 µM)
MIC ([9]; read-out: MIC): 2 µg/mL (≈ 5.22 µM)

Compound: CN(C)c1ccc(O)c2c1C[C@H]1C[C@H]3[C@H](N(C)C)C(O)=C(C(N)=O)C(=O)[C@@]3(O)C(O)=C1C2=O [Minocycline, minocycline]
MIC [3, 17]: 1 µg/mL (≈ 2.19 µM)
MIC ([4]; read-out: MIC): 4 µg/mL (≈ 8.74 µM)
Fold increase in AK signal ([10]; treatment 0.5×MIC): 1 fold
Fold increase in AK signal ([10]; treatment 1.0×MIC): 6 fold
Fold increase in AK signal ([11]; treatment 0.5×MIC): 4 fold
Fold increase in AK signal ([11]; treatment 1.0×MIC): 9 fold
MIC (Escherichia coli 8295 [5]; read-out: MIC): 16 µg/mL (≈ 35 µM)
Fold increase in AK signal ([6]; treatment 0.5×MIC): 3 fold
Fold increase in AK signal ([6]; treatment 1.0×MIC): 4 fold
MIC [7, 18]: 1 µg/mL (≈ 2.19 µM)
Fold increase in AK signal ([12]; treatment 0.5×MIC): 1 fold
Fold increase in AK signal ([12]; treatment 1.0×MIC): 1 fold
Fold increase in AK signal (Escherichia coli 8295 [13]; treatment 0.5×MIC): 4 fold
Fold increase in AK signal (Escherichia coli 8295 [13]; treatment 1.0×MIC): 38 fold
MIC (Staphylococcus aureus; Staphylococcus aureus): 8 µg/mL (≈ 17.5 µM)
MIC (Staphylococcus aureus; [19]): 1 µg/mL (≈ 2.19 µM)
MIC [8, 20]: 64 µg/mL (≈ 140 µM)
MIC ([9]; read-out: MIC): 32 µg/mL (≈ 69.9 µM)

MIC [3, 17]: 8 µg/mL (≈ 21.5 µM)
Compound: CC/C(=C(\c1ccccc1)c1ccc(OCCN(C)C)cc1)c1ccccc1 [Tamoxifen, tamoxifen]
activity in AK Prestwick screen (E. faecium): identified
higher survival than vehicle-treated controls (E. faecium strain 824-05; 80 mg kg-1 at 2 h and 24 h): 4.2 fold
higher survival than vehicle-treated controls (E. faecium strain 824-05; 160 mg kg-1 at 2 h and 24 h): 7 fold

Compound: CC(C)(C)c1ccc(C(O)CCCN2CCC(C(O)(c3ccccc3)c3ccccc3)CC2)cc1 (stereo not shown) [Terfenadine]
increase in AK release ([1]; 48-h S. aureus UAMS-1 biofilms): 2.7 fold
decrease in biofilm-associated bacteria / biofilm cell viability (plating) [1]: 1.1 log
MIC [7, 18]: 64 µg/mL (≈ 136 µM)
increase in AK signal compared to mock-treated cells ([2]; S. aureus small-colony-variant UAMS-1112, 10×MIC): 3.3 fold
MIC (Staphylococcus aureus; Staphylococcus aureus, S. aureus UAMS-1112 (small-colony variant), read-out: MIC): 2 µg/mL (≈ 4.24 µM)

Compound: CN[C@H](CC(C)C)C(=O)N[C@H]1C(=O)N[C@@H](CC(N)=O)C(=O)N[C@H]2C(=O)N[C@H]3C(=O)N[C@H](C(=O)N[C@H](C(=O)O)c4cc(O)cc(O)c4-c4cc3ccc4O)[C@H](O)c3ccc(c(Cl)c3)Oc3cc2cc(c3O[C@@H]2O[C@H](CO)[C@@H](O)[C@H](O)[C@H]2O[C@H]2C[C@](C)(N)[C@H](O)[C@H](C)O2)Oc2ccc(cc2Cl)[C@H]1O [Vancomycin, vancomycin]
MIC ([3]; Enterococcus faecium, 82405): 2 µg/mL (≈ 1.38 µM)
MIC [4]: > 256 µg/mL
MIC (Escherichia coli 8295 [5]): 16 µg/mL (≈ 11 µM)
Fold increase in AK signal ([6]; treatment 0.5×MIC): 1 fold
Fold increase in AK signal ([6]; treatment 1.0×MIC): 2 fold
MIC ([7]; Acinetobacter baumannii, 983709): 64 µg/mL (≈ 44.2 µM)
decrease in SCV viability (plating) [2, 16]: no effect
increase in AK signal compared to mock-treated cells [2, 16]: no change
Fold increase in AK signal (Escherichia coli 8295 [13]; treatment 0.5×MIC): 1 fold
Fold increase in AK signal (Escherichia coli 8295 [13]; treatment 1.0×MIC): 2 fold
MIC (Staphylococcus aureus; Staphylococcus aureus): 2 µg/mL (≈ 1.38 µM)
MIC (Staphylococcus aureus; Staphylococcus aureus, USA300): 1 µg/mL (≈ 0.69 µM)
MIC ([8]; Klebsiella pneumoniae, CKP1): > 256 µg/mL
MIC [9]: > 256 µg/mL

Compound: colistin
MIC ([3]; Enterococcus faecium 824-05): >256 µg/mL
MIC [4]: 2 µg/mL
Fold increase in AK signal ([10]; treatment 0.5×MIC): 5 fold
Fold increase in AK signal ([10]; treatment 1.0×MIC): 12 fold
AK release ([14]; A. baumannii 98-37-09, 0.25×, 0.5×, and 1×MIC): robustly detected
Fold increase in AK signal ([14]; treatment 0.5×MIC): 17 fold
Fold increase in AK signal ([14]; treatment 1.0×MIC): 49 fold
Fold increase in AK signal ([11]; treatment 0.5×MIC): 10 fold
Fold increase in AK signal ([11]; treatment 1.0×MIC): 32 fold
MIC (Escherichia coli 8295 [5]): 8 µg/mL
MIC ([7]; Acinetobacter baumannii 98-37-09): 4 µg/mL
Fold increase in AK signal ([12]; treatment 0.5×MIC): 34 fold
Fold increase in AK signal ([12]; treatment 1.0×MIC): 33 fold
Fold increase in AK signal (Escherichia coli 8295 [13]; treatment 0.5×MIC): 15 fold
Fold increase in AK signal (Escherichia coli 8295 [13]; treatment 1.0×MIC): 22 fold
decrease in biofilm-associated bacteria (plating) [15]: 1.8 log
MIC (Staphylococcus aureus; Staphylococcus aureus RN4220): >256 µg/mL
MIC (Staphylococcus aureus; Staphylococcus aureus USA300-0114): >256 µg/mL
MIC ([8]; Klebsiella pneumoniae cKP1): 8 µg/mL
MIC [9]: 4 µg/mL
